Several values for one entry are separate records, joined by “and”; a condition that tells them apart may be missing. Equal entries are not always repeated. Where two headings read alike, the source gives them in different places. *1 amine or outer side, *2 acyl side, *3 side chain or, on linkers, in order; H or OH if unused. Where a SMILES comes first, the peptide text is derived from it. Where no end group is shown, it is not given here. Side-chain parts run from the residue outwards. [ ]: non-standard residue; d: D form. The star is where a group is joined. C18 diacid = O=C(O)CCCCCCCCCCCCCCCCC(=O)*; γGlu = O=C(O)[C@H](CCC(=O)[*:2])N[*:1]; AEEA = NCCOCCOCC(=O)O; Aib = CC(C)(N)C(=O)O
How the values were obtained:
Format in all cases: cell-based
[1] = target: T1, human SNAP-tagged GIPR (Homo sapiens, UniProt P48546); assay: Receptor internalization assay, HEK293A cells expressing human SNAP-tagged GIPR; conditions: for Absolute hGIPR internalization (AUC): AUC of sigmoid curves up to 1 μM, 60 minutes at 37° C.; for Relative hGIPR internalization (%): relative to hGIP 1-42 = 100
T1 construct: host or cells: HEK293A
T1 sequence (P48546 22-466): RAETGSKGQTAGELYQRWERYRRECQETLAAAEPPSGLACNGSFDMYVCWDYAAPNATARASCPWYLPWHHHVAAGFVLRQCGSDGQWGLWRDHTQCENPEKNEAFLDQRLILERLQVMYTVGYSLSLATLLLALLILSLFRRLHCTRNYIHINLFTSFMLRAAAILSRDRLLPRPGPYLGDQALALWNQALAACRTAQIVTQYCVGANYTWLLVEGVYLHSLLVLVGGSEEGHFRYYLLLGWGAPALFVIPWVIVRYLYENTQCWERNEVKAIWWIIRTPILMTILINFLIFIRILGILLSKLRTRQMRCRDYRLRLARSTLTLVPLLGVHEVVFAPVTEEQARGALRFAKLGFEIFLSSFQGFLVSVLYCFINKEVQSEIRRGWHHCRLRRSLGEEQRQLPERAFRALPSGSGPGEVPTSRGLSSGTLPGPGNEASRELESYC

[2] = target: human glucagon receptor (GCGR) (Homo sapiens, UniProt P47871); assay: Gs activation measured as cAMP accumulation on human glucagon receptor (FIG. 1 radar plot); conditions: read-out: −p Log EC50 on human glucagon receptor (GCGR) (converted)
Description: Here, the compounds 20, 21, 22, 28, 30, 31,32, 33, 34, 35 are shown in terms of their potencies in Gs activation, measured as CAMP accumulation, depicted in a radar plot. The numbers refer to −p Log EC50 values. […] The outer rings correspond to higher potencies, the inner rings correspond to lower potencies.

[3] = target: T2, human SNP-tagged GLP-2R (Homo sapiens, UniProt O95838); assay: Receptor internalization assay, HEK293A cells expressing human SNAP-tagged GLP-2R; conditions: for Absolute hGLP-2R internalization (AUC): AUC of sigmoid curves up to 1 μM, 60 minutes at 37° C.; for Relative hGLP-2R internalization (%): relative to native ligand = 100
T2 construct: expressed in transfected cells; host or cells: HEK293A
T2 sequence (O95838 1-553): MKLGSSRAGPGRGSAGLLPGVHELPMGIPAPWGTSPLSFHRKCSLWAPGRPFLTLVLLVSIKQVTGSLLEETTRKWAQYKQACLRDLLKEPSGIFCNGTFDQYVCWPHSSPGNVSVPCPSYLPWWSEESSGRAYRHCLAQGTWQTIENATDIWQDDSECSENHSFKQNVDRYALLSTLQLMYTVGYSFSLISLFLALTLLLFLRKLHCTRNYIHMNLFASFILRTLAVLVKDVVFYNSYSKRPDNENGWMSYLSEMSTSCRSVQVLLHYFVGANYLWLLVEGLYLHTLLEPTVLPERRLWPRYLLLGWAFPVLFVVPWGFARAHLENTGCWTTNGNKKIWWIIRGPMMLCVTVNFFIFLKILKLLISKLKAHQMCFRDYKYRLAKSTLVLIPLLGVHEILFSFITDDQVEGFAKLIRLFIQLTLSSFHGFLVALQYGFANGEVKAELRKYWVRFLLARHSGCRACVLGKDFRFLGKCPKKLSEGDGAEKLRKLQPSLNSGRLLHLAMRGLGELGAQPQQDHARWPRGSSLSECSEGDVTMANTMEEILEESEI

[4] = target: T3, human SNAP-tagged GLP-1R (Homo sapiens, UniProt P43220); assay: Receptor internalization assay, HEK293A cells expressing human SNAP-tagged GLP-1R; conditions: for Absolute hGLP-1R internalization (AUC): AUC of sigmoid curves up to 1 μM, 60 minutes at 37° C.; for Relative hGLP-1R internalization (%): relative to hGLP-1 = 100
T3 construct: expressed in transfected cells; host or cells: HEK293A

[5] = target: T4, human GIPR (Homo sapiens, UniProt P48546); assay: cAMP assay (HitHunter) in transiently transfected COS-7 cells expressing human GIPR; conditions: for Emax: COS-7, normalized to highest concentration of the endogenous ligand, read-out: Efficacy GIPR (Emax)
T4 construct: host or cells: COS-7
T4 sequence (P48546 22-466): T1 sequence (P48546 22-466)

[6] = target: T5, human GLP-1R (Homo sapiens, UniProt P43220); assay: cAMP assay (HitHunter) in transiently transfected COS-7 cells expressing human GLP-1R; conditions: for Emax: COS-7, normalized to highest concentration of the endogenous ligand, read-out: Efficacy GLP-1R (Emax); for EC50: cAMP, COS-7 cells, human GLP-1R
T5 construct: host or cells: COS-7

[7] = target: T6, human GLP-2R (Homo sapiens, UniProt O95838); assay: cAMP assay (HitHunter) in transiently transfected COS-7 cells expressing human GLP-2R; conditions: for Emax: COS-7, normalized to highest concentration of the endogenous ligand, read-out: Efficacy GLP-2R (Emax); for EC50: cAMP, COS-7 cells, human GLP-2R, read-out: EC50 (nM) GLP-2R
T6 construct: host or cells: COS-7
T6 sequence (O95838 1-553): T2 sequence (O95838 1-553)

T3 sequence (P43220 24-463): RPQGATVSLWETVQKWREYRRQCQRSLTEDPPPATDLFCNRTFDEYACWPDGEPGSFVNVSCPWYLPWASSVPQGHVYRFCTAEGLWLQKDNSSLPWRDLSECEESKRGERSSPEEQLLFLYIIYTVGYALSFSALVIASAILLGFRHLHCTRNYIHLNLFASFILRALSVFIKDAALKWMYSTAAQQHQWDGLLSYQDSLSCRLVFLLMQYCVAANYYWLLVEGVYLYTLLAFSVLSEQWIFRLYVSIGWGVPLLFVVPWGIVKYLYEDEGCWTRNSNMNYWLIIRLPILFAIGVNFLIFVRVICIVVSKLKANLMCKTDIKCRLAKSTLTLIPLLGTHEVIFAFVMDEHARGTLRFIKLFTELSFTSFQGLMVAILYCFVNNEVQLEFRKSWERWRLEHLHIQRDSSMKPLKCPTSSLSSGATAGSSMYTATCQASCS
T5 sequence (P43220 24-463): as above
Chain of human glucagon receptor (GCGR) (P47871 26-477): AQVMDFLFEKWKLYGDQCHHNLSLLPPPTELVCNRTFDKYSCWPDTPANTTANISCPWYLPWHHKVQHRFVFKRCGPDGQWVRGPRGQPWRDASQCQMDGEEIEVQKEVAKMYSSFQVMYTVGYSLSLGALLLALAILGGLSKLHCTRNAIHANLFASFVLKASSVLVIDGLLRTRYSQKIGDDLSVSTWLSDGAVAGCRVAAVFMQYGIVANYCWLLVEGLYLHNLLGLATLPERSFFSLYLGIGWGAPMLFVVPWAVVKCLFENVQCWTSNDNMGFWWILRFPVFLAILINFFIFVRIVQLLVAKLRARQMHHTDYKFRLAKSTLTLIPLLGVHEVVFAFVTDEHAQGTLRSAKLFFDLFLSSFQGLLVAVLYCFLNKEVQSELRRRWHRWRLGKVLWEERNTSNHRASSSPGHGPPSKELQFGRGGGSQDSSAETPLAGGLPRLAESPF

Row | Compound | Absolute hGIPR internalization (AUC) [1] | Relative hGIPR internalization (%) [1] | EC50 [2] | Absolute hGLP-2R internalization (AUC) [3] | Relative hGLP-2R internalization (%) [3] | Absolute hGLP-1R internalization (AUC) [4] | Relative hGLP-1R internalization (%) [4] | Emax [5] | loss in GIP potency in cAMP ([5]; fatty acid in position 17 compared to position 16 (Compound 30)) | Emax [6] | Emax [7] | EC50 [7] | EC50 ([6]; read-out: EC50 (nM) GLP-1R) | GIPR internalization (in words) ([1]; compared to native GIP) | GLP-2R internalization (in words) ([3]; compared to native GLP-2) | GLP-1R internalization (in words) ([4]; compared to native GLP-1) | EC50 ([5]; cAMP, COS-7 cells, human GIPR) | EC50 ([6]; read-out: logEC50 GLP-1R (converted))
1 | CC[C@H](C)[C@H](NC(=O)[C@H](Cc1ccccc1)NC(=O)[C@H](CC(=O)O)NC(=O)[C@H](CCCNC(=N)N)NC(=O)[C@H](C)NC(=O)[C@H](C)NC(=O)[C@H](CCCCNC(=O)COCCOCCNC(=O)COCCOCCNC(=O)CC[C@H](NC(=O)CCCCCCCCCCCCCCCCC(=O)O)C(=O)O)NC(=O)[C@H](CC(N)=O)NC(=O)[C@H](CC(=O)O)NC(=O)[C@H](CC(C)C)NC(=O)[C@@H](NC(=O)[C@@H](NC(=O)[C@H](CO)NC(=O)[C@H](Cc1ccc(O)cc1)NC(=O)[C@H](CC(=O)O)NC(=O)[C@H](CO)NC(=O)[C@@H](NC(=O)[C@H](Cc1ccccc1)NC(=O)[C@@H](NC(=O)CNC(=O)[C@H](CC(=O)O)NC(=O)[C@H](C)NC(=O)[C@@H](N)Cc1c[nH]cn1)[C@@H](C)O)[C@@H](C)CC)[C@@H](C)O)[C@@H](C)CC)C(=O)N[C@@H](CC(N)=O)C(=O)N[C@@H](Cc1c[nH]c2ccccc12)C(=O)N[C@@H](CC(C)C)C(=O)N[C@H](C(=O)N[C@@H](CCC(N)=O)C(=O)N[C@H](C(=O)N[C@@H](CCCCN)C(=O)NCC(=O)N[C@@H](CCCCN)C(=O)N[C@@H](CCCCN)C(=O)O)[C@@H](C)O)[C@@H](C)CC [Compound 32] (H-HADGTFISDYSTILDNK([AEEA-AEEA-γGlu-C18 diacid])AARDFINWLIQTKGKK-OH) | 6.5 | 18% | > 100 nM | 15.0 | 30.8% | 7.0 | 8.3% | 80% | > 10 fold | 84% | 77% | 3.2 nM |  |  |  |  |  | 
2 | CC[C@H](C)[C@H](NC(=O)[C@H](Cc1ccccc1)NC(=O)[C@H](CC(=O)O)NC(=O)[C@H](CCCNC(=N)N)NC(=O)[C@H](C)NC(=O)[C@H](C)NC(=O)[C@H](CC(C)C)NC(=O)[C@H](C)NC(=O)[C@H](CC(=O)O)NC(=O)[C@H](CC(C)C)NC(=O)[C@@H](NC(=O)[C@@H](NC(=O)[C@H](CO)NC(=O)[C@H](Cc1ccc(O)cc1)NC(=O)[C@H](CC(=O)O)NC(=O)[C@H](CO)NC(=O)[C@@H](NC(=O)[C@H](Cc1ccccc1)NC(=O)[C@@H](NC(=O)CNC(=O)[C@H](CC(=O)O)NC(=O)C(C)(C)NC(=O)[C@@H](N)Cc1c[nH]cn1)[C@@H](C)O)[C@@H](C)CC)[C@@H](C)O)[C@@H](C)CC)C(=O)N[C@@H](CC(N)=O)C(=O)N[C@@H](Cc1c[nH]c2ccccc12)C(=O)N[C@@H](CC(C)C)C(=O)N[C@H](C(=O)N[C@@H](CCC(N)=O)C(=O)N[C@H](C(=O)N[C@@H](CCCCN)C(=O)N[C@H](C(=O)N[C@H](C(=O)N[C@@H](CCCCNC(=O)COCCOCCNC(=O)COCCOCCNC(=O)CC[C@H](NC(=O)CCCCCCCCCCCCCCCCC(=O)O)C(=O)O)C(=O)O)[C@@H](C)O)[C@@H](C)CC)[C@@H](C)O)[C@@H](C)CC [Compound 28] (H-H[Aib]DGTFISDYSTILDALAARDFINWLIQTKITK([AEEA-AEEA-γGlu-C18 diacid])-OH; N-terminus assumed) | 21.7 | 58% and 59% | > 100 nM | 12.0 | 24.8% | 0.96 | 1.14% | 119% |  | 102% | 89% | 2.2 nM | 3.98 nM |  |  |  |  | 
3 | HADGTFTSDYST[Aib]LDK([AEEA-AEEA-γGlu-C18 diacid])LAARDFINWLIQTKGKKNDWKHNITQ-OH [Compound 22] | 7.0 | 19% | > 100 nM | 38.0 | 78.2% | 78.81 | 93.70% | 93% |  | 116% | 93% | 0.6 nM | 0.04 nM | reduced internalization compared to native GIP | comparable to native GLP-1 and GLP-2 | comparable to native GLP-1 and GLP-2 | 1.12 nM | 0.0316 nM
